Source: patent US4216314A, “N-Aryloxypropyl-N'-dioxopyrimidyl-α,ω-alkylenediamines” (Cassella Farbwerke Mainkur Aktiengesellschaft, priority 1977, dated 1980)

Columns and labels:
[1] = biological target: T1, β1 -receptors of the heart (Canis lupus familiaris, UniProt P79148); assay: inhibition of isoproterenol effect on dp/dtmax of left ventricle (β1-receptors of the heart) in anaesthetised dogs; type: in vivo, mongrel dogs; conditions: for ED50: dog, cumulative intravenous dose for 50% inhibition of effect of isoproterenol (0.5 gamma/kg i.v.) on dp/dtmax, chloralose/urethane/morphine anaesthesia, read-out: ED50 β1 mg/kg intravenously; for ratio of the doses, ED50 β2 / ED50 β1 (head is drawing 43): number significantly >1 indicates cardioselective action
T1 construct: from tissue; host or cells: heart (left ventricle) of anaesthetised mongrel dogs, in vivo
Description: (§1) Pharmacological tests for activity towards β1 -receptors and β2 -receptors were carried out on mongrel dogs of both sexes under chloralose/urethane/morphine anaesthesia. The pressure in the left ventricle was recorded by means of a catheter tip manometer (micro-tip pressure transducer, MILLAR Instruments, Houston, Texas). The pressure signal was continuously differentiated by means of an analog computer and recorded (BRUSH Instruments, Cleveland, Ohio). The flow of blood through an arteria femoralis was measured and recorded by means of an electromagnetic flow meter (Messrs. STATHAM, Model M4000). Injection catheters were fastened to a peripheral vein and into a branch of the a. femoralis.
(§2) Isoproterenol was injected intravenously (0.5 gamma/kg) and intraarterially (0.05 gamma/kg). The effect of the isoproterenol on the dp/dtmax in the case of intravenous administration was considered to be an expression of the stimulation of the β1 -receptors of the heart. The change in the flow of blood through the arteria femoralis in the case of intraarterial injection of isoproterenol was considered to be an expression of the stimulation of the peripheral β2 -receptors (D-DUNLOP and R. G. SHANKS, "Selective Blockade of Adrenoceptive beta-Receptors in the Heart", Br. J. Pharmac. Chemother., 32, 201 to 218, 1968). The percentage inhibition of the effects of isoproterenol with respect to the cumulative doses of the test substance was determined. The cumulative doses of the test substance which leads to 50% inhibition of the isoproterenol effects (=ED50) was determined by means of a modified probit analysis. Substances which inhibit the isoproterenol effects on the dp/dtmax (β1) at a low dose and only decrease the change in the flow of blood through the a. femoralis at higher doses (β2) preferentially act on the β1 -receptors of the heart. The ratio of the doses. [formula] should be as high as possible.

[2] = biological target: T2, peripheral β2 -receptors (Canis lupus familiaris, UniProt P54833); assay: inhibition of isoproterenol effect on blood flow through arteria femoralis (peripheral β2-receptors) in anaesthetised dogs; type: in vivo, mongrel dogs; conditions: dog; cumulative intravenous dose for 50% inhibition of effect of isoproterenol (0.05 gamma/kg intraarterially) on blood flow through a. femoralis; chloralose/urethane/morphine anaesthesia; read-out: ED50 β2 mg/kg intraveneously
T2 construct: from tissue; host or cells: femoral arterial bed of anaesthetised mongrel dogs, in vivo
Description: as §1, §2

T1 sequence (P79148 whole entry): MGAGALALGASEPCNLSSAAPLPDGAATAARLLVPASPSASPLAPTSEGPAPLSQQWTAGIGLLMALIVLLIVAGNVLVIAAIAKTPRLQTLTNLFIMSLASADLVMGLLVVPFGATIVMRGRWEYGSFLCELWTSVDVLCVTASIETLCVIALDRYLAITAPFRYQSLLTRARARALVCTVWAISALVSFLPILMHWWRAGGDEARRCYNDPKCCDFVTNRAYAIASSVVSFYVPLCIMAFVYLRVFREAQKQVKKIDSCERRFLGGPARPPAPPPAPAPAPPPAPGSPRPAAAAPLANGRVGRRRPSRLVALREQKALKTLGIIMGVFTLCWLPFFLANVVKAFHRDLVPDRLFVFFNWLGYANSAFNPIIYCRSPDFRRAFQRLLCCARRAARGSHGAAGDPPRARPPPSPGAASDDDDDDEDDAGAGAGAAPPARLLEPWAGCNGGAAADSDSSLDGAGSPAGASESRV
T2 sequence (P54833 whole entry): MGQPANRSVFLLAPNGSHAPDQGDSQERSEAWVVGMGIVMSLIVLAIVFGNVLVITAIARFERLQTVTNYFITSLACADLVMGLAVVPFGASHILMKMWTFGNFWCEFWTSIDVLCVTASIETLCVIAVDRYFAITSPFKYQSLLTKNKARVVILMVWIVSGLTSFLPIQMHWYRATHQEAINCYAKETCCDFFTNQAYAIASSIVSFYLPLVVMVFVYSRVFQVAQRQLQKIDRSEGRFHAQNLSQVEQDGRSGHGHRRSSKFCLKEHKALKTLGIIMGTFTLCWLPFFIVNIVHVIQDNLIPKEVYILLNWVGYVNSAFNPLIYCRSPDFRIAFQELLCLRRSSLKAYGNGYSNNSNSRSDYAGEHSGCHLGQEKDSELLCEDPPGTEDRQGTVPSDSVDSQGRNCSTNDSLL

Row | Structure (SMILES) | ED50 [1] [mg/kg] | ratio of the doses, ED50 β2 / ED50 β1 (head is drawing 43) [1] | ED50 [2] [mg/kg]
1 | COc1ccc(OCC(O)CNCCNc2cc(=O)n(C)c(=O)n2C)cc1 (stereo not drawn) [Example 11] | 0.0157 | 341 | 5.36
2 | CCCOc1ccc(OCC(O)CNCCNc2cc(=O)n(C)c(=O)n2C)cc1 (stereo not drawn) [Example 12] | 0.0061 | > 1,000 | > 7.3
3 | CCCCOc1ccc(OCC(O)CNCCNc2cc(=O)n(C)c(=O)n2C)cc1 (stereo not drawn) [Example 13] | 0.0096 | > 1,000 | > 9.6

Other lines, results leading:

Row | ED50 [1] [mg/kg] | ratio of the doses, ED50 β2 / ED50 β1 (head is drawing 43) [1] | ED50 [2] [mg/kg] | Structure (SMILES)
4 | 0.0291 | 303 | 8.83 | Cn1c(NCCNCC(O)COc2ccc(OCCO)cc2)cc(=O)n(C)c1=O (stereo not drawn) [Example 14]
5 | 0.0139 | 322 | 4.48 | Cn1c(NCCNCC(O)COc2ccc(OCc3ccccc3)cc2)cc(=O)n(C)c1=O (stereo not drawn) [Example 19]
